For assay [1], the system named is Acinetobacter baumannii. Briefly: Antibacterial activity against Acinetobacter baumannii ATCC BAA-747 after 16 hrs. Format: functional. The following applies: for MIC90: ATCC BAA-747, 16 h.
Assay [2] has as its system Mycolicibacterium smegmatis. Briefly: Antimycobacterial activity against Mycobacterium smegmatis ATCC 700084 under normoxic condition after 72 hrs by MABA assay. Format: functional. Particulars: ATCC 700084, 72 h. For orientation: Resazurin is reduced to fluorescent resorufin, in cell work by metabolically active cells.
Assay [3] has as its system Enterococcus faecalis. Briefly: Antibacterial activity against Enterococcus faecalis ATCC 29212 after 16 hrs. It counts as functional. Particulars: ATCC 29212, 16 h.
Assay [4] deals with Enterococcus faecalis. The assay is described as follows: Antibacterial activity against Enterococcus faecalis ATCC 29212 at 10 ug/ml after 16 hrs. Format: functional. The following applies: ATCC 29212, 16 h.
The subject of assay [5] is Staphylococcus aureus. Briefly: Antibacterial activity against Staphylococcus aureus ATCC 29213 after 16 hrs. Format: functional.
The test system of assay [6] is Escherichia coli. The assay is described as follows: Antibacterial activity against Escherichia coli ATCC 25922 after 16 hrs. It counts as functional.
Assay [7] deals with Mycobacterium tuberculosis. Briefly: Antimycobacterial activity against Mycobacterium tuberculosis H37Rv under normoxic condition after 7 days by MABA assay. Format: functional.
The subject of assay [8] is Pseudomonas aeruginosa. The assay is described as follows: Antibacterial activity against Pseudomonas aeruginosa ATCC 27853 after 16 hrs. Particulars: for MIC90: ATCC 27853, 16 h. Format: functional.
Assay [9] relates to Mycobacterium tuberculosis. The assay is described as follows: Antimycobacterial activity against Mycobacterium tuberculosis clinical isolate X005319 under normoxic condition after 7 days by MABA assay. Particulars: clinical isolate X005319, 168 h. Format: functional.
Assay [10] deals with Vero. The assay is described as follows: Cytotoxicity against african green monkey Vero cells. Format: cell-based. The following applies: Chlorocebus sabaeus.
Assay [11] concerns Mycobacterium tuberculosis. Briefly: Antimycobacterial activity against Mycobacterium tuberculosis clinical isolate X005282 under normoxic condition after 7 days by MABA assay. It counts as functional. Particulars: clinical isolate X005282, 168 h.
Assay [12] relates to Mycobacterium tuberculosis. Briefly: Antimycobacterial activity against Mycobacterium tuberculosis clinical isolate X004439 under normoxic condition after 7 days by MABA assay. It counts as functional. Particulars: clinical isolate X004439, 168 h.
For assay [13], the system named is Mycobacterium tuberculosis. The assay is described as follows: Antimycobacterial activity against Mycobacterium tuberculosis clinical isolate X004244 under normoxic condition after 7 days by MABA assay. It counts as functional. The following applies: clinical isolate X004244, 168 h.
Assay [14] relates to Streptococcus pneumoniae. Briefly: Antibacterial activity against Streptococcus pneumoniae ATCC 49619 after 20 hrs. It counts as functional. The following applies: ATCC 49619, 20 h.
The test system of assay [15] is Mycobacterium tuberculosis. The assay is described as follows: Antimycobacterial activity against Mycobacterium tuberculosis clinical isolate X003899 under normoxic condition after 7 days by MABA assay. Particulars: clinical isolate X003899, 168 h. It counts as functional.
The test system of assay [16] is Mycobacterium tuberculosis. The assay is described as follows: Antimycobacterial activity against Mycobacterium tuberculosis H37Rv under normoxic condition after 7 days by MABA assay in presence of 10% fetal bovine serum. It counts as functional. The following applies: 168 h.
Assay [17] relates to Mycobacterium tuberculosis. Briefly: Antimycobacterial activity against Mycobacterium tuberculosis clinical isolate X001354 under normoxic condition after 7 days by MABA assay. Format: functional. The following applies: clinical isolate X001354, 168 h.
Assay [18] relates to Mycobacterium tuberculosis. Briefly: Antimycobacterial activity against Mycobacterium tuberculosis H37Rv under normoxic condition after 7 days by MABA assay in presence of 4% bovine serum albumin. It counts as functional. Particulars: 168 h.
The mark [19] stands for this setting: Mycobacterium tuberculosis, H37Rv, 168 h.

We go through ten compounds from ChEMBL document CHEMBL3085716, “Hytramycins V and I, anti-Mycobacterium tuberculosis hexapeptides from a Streptomyces hygroscopicus strain” (J Nat Prod, 2013).

In brackets after ≈: the same amount, converted by molar mass. Some results are limits rather than exact numbers.

As for `CN(C)[C@@H]1C(O)=C(C(N)=O)C(=O)[C@@]2(O)C(O)=C3C(=O)c4c(O)ccc(Cl)c4[C@@H](O)[C@H]3C[C@@H]12` [DEMECLOCYCLINE], in assay [1], the MIC90 – broadly, an inhibitory concentration at the 90% level, which refers to growth in some studies and to a panel of isolates in others – is 0.1 µg/mL (≈ 0.215 µM).

The compound `CN(C)c1ccc(O)c2c1C[C@H]1C[C@H]3[C@H](N(C)C)C(O)=C(C(N)=O)C(=O)[C@@]3(O)C(O)=C1C2=O` [MINOCYCLINE] yielded an MIC90 in assay [1] of 0.2 µg/mL (≈ 0.437 µM).

`CC(C)/N=c1\cc2n(-c3ccc(Cl)cc3)c3ccccc3nc-2cc1Nc1ccc(Cl)cc1` [CLOFAZIMINE] yielded an MIC90 in assay [2] of 1.1 µg/mL (≈ 2.32 µM).

Turning to `CC1(C)S[C@@H]2[C@H](NC(=O)[C@H](N)c3ccccc3)C(=O)N2[C@H]1C(=O)O` [AMPICILLIN], the MIC90 in [3] was above 10 µg/mL; in assay [5] (ATCC 29213, 16 h), 1.2 µg/mL (≈ 3.43 µM); in assay [6] (ATCC 25922, 16 h) it was 8.9 µg/mL (≈ 25.5 µM). In assay [4], 10 µg/mL produced 66% inhibition.

Consider `CC(C)[C@H]1NC(=O)[C@@H]2C[C@@]3(O)c4ccc(Cl)cc4N[C@H]3N2C(=O)[C@H]2CCCNN2C(=O)[C@H](C)N(C)C(=O)[C@H]2CCCNN2C(=O)[C@@H]2CCCNN2C1=O`, for which the MIC (usually the lowest concentration found to suppress growth) in [7] (setting [19]) came out at 18.6 µg/mL (≈ 24.6 µM).

On to `CO[C@H]1/C=C/O[C@@]2(C)Oc3c(C)c(O)c4c(O)c(c(/C=N/N5CCN(C)CC5)c(O)c4c3C2=O)NC(=O)/C(C)=C\C=C\[C@H](C)[C@H](O)[C@@H](C)[C@@H](O)[C@@H](C)[C@H](OC(C)=O)[C@@H]1C` [RIFAMPIN], for which the MIC90 in [8] is 17.8 µg/mL (≈ 21.6 µM); in [3], 0.2 µg/mL (≈ 0.243 µM); in assay [9] it was 0.1 µg/mL (≈ 0.122 µM); in assay [2] it was below 0.3 µg/mL; in assay [11], 0.03 µg/mL (≈ 0.0365 µM); in [12], 0.02 µg/mL (≈ 0.0243 µM). The MIC90 in [13] is 0.1 µg/mL (≈ 0.122 µM); in assay [14] it was below 0.01 µg/mL; in assay [15] it was 0.1 µg/mL (≈ 0.122 µM); in [7] (setting [19]), below 0.02 µg/mL; in assay [16] it was below 0.02 µg/mL; in assay [17], 0.02 µg/mL (≈ 0.0243 µM). The MIC90 in [18] was 0.02 µg/mL. In [10], half-maximal inhibition (IC50) was put at 143 µg/mL (≈ 174 µM). This compound yielded an MBC90 in assay [7] of 0.1 µg/mL (≈ 0.122 µM).

For `C[C@H]1c2cccc(O)c2C(=O)C2=C(O)[C@]3(O)C(=O)C(C(N)=O)=C(O)[C@@H](N(C)C)[C@@H]3[C@@H](O)[C@@H]21.O` [DOXYCYCLINE], in assay [1], the MIC90 was 0.1 µg/mL.

On to `O=C(O)c1cn(C2CC2)c2cc(N3CCNCC3)c(F)cc2c1=O` [CIPROFLOXACIN], for which the MIC90 in assay [8] came to 0.2 µg/mL (≈ 0.604 µM); in assay [3], 4.9 µg/mL (≈ 14.8 µM).

For GENTAMICIN, the MIC>90 in assay [1] worked out at 0.2 µg/mL; in assay [8], 0.5 µg/mL; in [5] it was 0.6 µg/mL; in assay [6], 1.2 µg/mL.

Turning to `CN[C@@H]1[C@H](O[C@H]2[C@H](O[C@H]3[C@H](O)[C@@H](O)[C@H](N=C(N)N)[C@@H](O)[C@@H]3N=C(N)N)O[C@@H](C)[C@]2(O)C=O)O[C@@H](CO)[C@H](O)[C@H]1O` [STREPTOMYCIN], the MIC90 amounted to 1 µg/mL (≈ 1.72 µM) in [9]; 0.1 µg/mL (≈ 0.172 µM) in [2]; 0.6 µg/mL (≈ 1.03 µM) in assay [11]; 0.3 µg/mL (≈ 0.516 µM) in assay [12]; 0.3 µg/mL (≈ 0.516 µM) in [13]; 0.2 µg/mL (≈ 0.344 µM) in assay [15]. Also, the MIC90 in assay [7] (setting [19]) was found to be 0.3 µg/mL (≈ 0.516 µM); in assay [16], 0.6 µg/mL; in [17] it was 0.4 µg/mL (≈ 0.688 µM); in assay [18], 0.8 µg/mL.
